Experimental data published in patent publication US8735412B2, “Sulfoximine-substituted anilinopyrimidine derivatives as CDK inhibitors, the production thereof, and use as medicine” (Bayer Intellectual Property GmbH, priority 2008, dated 2014).
Like-named read-outs stand apart in the source and are kept apart here.

Experiments:
CDK2/CycE = molecular target: T1, CDK2/CycE (Homo sapiens, UniProt P24941); assay: CDK2/CycE kinase assay (Assay 2); format: biochemical; conditions: 0.5 μM ATP, histon IIIS substrate; read-out: CDK2/CycE (Assay 2) Concentration for 50% inhibition of enzyme activity, IC50
T1 construct: purchased ProQinase GmbH, Freiburg; host or cells: baculovirus-infected insect cells (Sf9)
Experimental: 10.2 Assay 2: CDK2/CycE Kinase Assay
Recombinant CDK2 and CycE-GST fusion proteins, purified from baculovirus-infected insect cells (Sf9), were purchased from ProQinase GmbH, Freiburg. Histon IIIS, used as kinase substrate, was purchased from the company Sigma. CDK2/CycE (50 ng/measuring point) was incubated for 10 min at 22° C. in the presence of various concentrations of test substances (0 μM, and within the range 0.01-100 μM) in assay buffer [50 mM Tris/HCl pH8.0, 10 mM MgCl2, 0.1 mM Na ortho-vanadate, 1.0 mM dithiothreitol, 0.5 μM adenosine triphosphate (ATP), 10 μg/measuring point histon IIIS, 0.2 μCi/measuring point ^33P-gamma ATP, 0.05% NP40, 1.25% dimethylsulfoxide]. The reaction was stopped by adding EDTA solution (250 mM, pH8.0, 15 μl/measuring point).
From each reaction mixture, 15 μl was applied to P30 filter strips (from Wallac), and unincorporated ^33P-ATP was removed by washing the filter strips three times, for 10 min each time, in 0.5% phosphoric acid. After drying the filter strips for 1 hour at 70° C., the filter strips were covered with scintillator strips (MeltiLex™ A, from Wallac) and stoved for 1 hour at 90° C. The amount of incorporated ^33P (substrate phosphorylation) was determined by scintillation measurement in a gamma-radiation measuring instrument (Wallac). The measured data were standardized to 0% inhibition (enzyme reaction without inhibitor) and 100% inhibition (all assay components except enzyme). The IC50 values were determined by means of a 4-parameter fit using the company's own software.

[1] = system: HeLa-MaTu cervical carcinoma cells; assay: Proliferation assay (Assay 4), crystal violet staining; format: cell-based; conditions: Homo sapiens, 96 h, 4 days incubation; read-out: HeLa-MaTu (Assay 4) Concentration for 50% inhibition of cellular proliferation, IC50
Experimental: 10.4 Assay 4: Proliferation Assay
Cultivated human HeLa-MaTu cervical carcinoma cells (obtained from EPO-GmbH, Berlin) were plated at a density of 3000 cells/measuring point in a 96-well multititer is plate in 200 μl of growth medium (DMEM/HAMS F12, 2 mM L-glutamine, 10% fetal calf serum). After 24 hours the cells of one plate (zero-point plate) were stained with crystal violet (see below), whereas the medium of the other plates was replaced with fresh culture medium (200 μl), to which the test substances had been added at various concentrations (0 μM, and in the range 0.01-30 μM; the final concentration of the solvent dimethylsulfoxide was 0.5%). The cells were incubated for 4 days in the presence of the test substances. Cellular proliferation was determined by staining the cells with crystal violet: the cells were fixed by adding 20 μl/measuring point of an 11% glutaraldehyde solution for 15 min at room temperature. After washing the fixed cells with water three times, the plates were dried at room temperature. The cells were stained by adding 100 μl/measuring point of a 0.1% crystal violet solution (pH adjusted to pH3 by adding acetic acid). After washing the stained cells with water three times, the plates were dried at room temperature. The dye was dissolved by adding 100 μl/measuring point of a 10% acetic acid solution. The extinction was determined photometrically at a wavelength of 595 nm. The percentage change in cell growth was calculated by standardization of the measured values to the extinction values of the zero-point plate (=0%) and the extinction of the untreated (0 μM) cells (=100%). The measured data were standardized to 0% inhibition (cell proliferation without inhibitor) and 100% inhibition (zero-point plate). The IC50 values were determined by means of a 4-parameter fit using the company's own software.

[2] = system: HeLa-MaTu human cervical carcinoma xenograft; assay: HeLa-MaTu cervical tumor xenograft model on NMRI nude mice; format: in vivo; conditions: oral; for tolerability of the cyclic treatment regimen: 10 mg/kg; for response vs control in vivo at 10 mg/kg: Mus musculus, read-out: treatment/control ratio T/C (tumor weight)
Experimental: HeLa-MaTu (EPO-GmbH, Berlin) human cervical carcinoma cells, which were grown in cell culture, were implanted subcutaneously in the flank of female NMRI nude mice. […] The study was terminated as soon as the tumors in one of the groups reached a size of approx. 150 mm^2.
(§1) The growth-inhibiting effect of the compounds was tested in the HeLa-MaTu cervical tumor model as xenograft on NMRI nude mice. […] Treatment of the established tumors was begun on day 4 after inoculation of the tumors.
as §1, §1
(§2) The study was designed for determining the initial response of a human cervical carcinoma xenograft model to treatments with the 5-Br comparative substance V12. The growth-inhibiting effect of the compounds was tested in the HeLa-MaTu cervical tumor model as xenograft on NMRI nude mice. V12 was dissolved completely in the solubilizer 40% polyethylene glycol 400 (PEG 400)/60% water to a final concentration of 0.7 mg/ml (group 2), 0.85 mg/ml (group 3), or 1.0 mg/ml (group 4). Treatment of the established tumors was begun on day 4 after inoculation of the tumors.
HeLa-MaTu (EPO-GmbH, Berlin) human cervical carcinoma cells, which were grown in cell culture, were implanted subcutaneously in the flank of female NMRI nude mice. […] The study was terminated as soon as the tumors in one of the groups reached a size of approx. 160 mm^2.
(§3) The growth-inhibiting effect of the compounds was tested in the HeLa-MaTu cervical tumor model as xenograft on NMRI nude mice. […] Treatment of the established tumors was begun on day 5 after inoculation of the tumors.
as §3, §3
The following test groups were used: • Group 1: Control, treatment with solubilizer (40% PEG 400/60% water) • Group 2: Compound according to WO 2005/037800 prepared according to preparation V14 disclosed above • (6 mg/kg, oral, 2x daily on day 5, 6, 12, 13, 19, 20) • Group 3: Compound according to WO 2005/037800 prepared according to preparation V14 disclosed above • (8 mg/kg, oral, 2× daily on day 5, 6, 12, 13, 19, 20) • Group 4: Compound according to WO 2005/037800 prepared according to preparation V14 disclosed above • (10 mg/kg, oral, 2× daily on day 5, 6, 12, 13, 19, 20)
as §2, with “substance V14.” for “substance V12.”, “mice. V14” for “mice. V12”, “of 0.6” for “of 0.7”, “2), 0.8” for “2), 0.85”, “day 5” for “day 4”

Compound	IC50 (CDK2/CycE)	IC50 [1]	tolerability of the cyclic treatment regimen ([2]; 2x daily on day 4, 5, 11, 12, 17, 18, 23, 24)	effect on tumor growth (in words) ([2]; 7, 8.5, 10 mg/kg, 2x daily on day 4, 5, 11, 12, 17, 18, 23, 24)	response vs control in vivo at 10 mg/kg ([2]; 672 h, 10 mg/kg (group 4), 2x daily on day 4, 5, 11, 12, 17, 18, 23, 24, day 28)	reduction of tumor weight at the end of the study to % of the control group ([2]; 10 mg/kg (group 4), 2x daily on day 5, 6, 12, 13, 19, 20, day 20)	tolerability of the cyclic treatment regimen ([2]; 2x daily on day 5, 6, 12, 13, 19, 20)	effect on tumor growth (in words) ([2]; 6, 8, 10 mg/kg, 2x daily on day 5, 6, 12, 13, 19, 20)	response vs control in vivo at 10 mg/kg ([2]; 480 h, 10 mg/kg (group 4), 2x daily on day 5, 6, 12, 13, 19, 20, day 20)
CCS(=N)(=O)c1ccc(Nc2ncc(Br)c(N[C@H](C)[C@@H](C)O)n2)cc1 (some centres unmarked) [Example V12]	3 nM	13 nM	well-tolerated	dose-dependent weak inhibition of tumor growth	51%	–	–	–	–
C[C@@H](O)[C@@H](C)Oc1nc(Nc2ccc(S(=N)(=O)C3CC3)cc2)ncc1Br (single isomer, unassigned) [Example V14]	7 nM	10 nM	–	–	–	44%	well-tolerated	dose-dependent inhibition of tumor growth	44%
